Where “and” joins values, the source holds several entries; their conditions need not be identical. Identical values can stand only once.
What was measured:
[1] = molecular target: Cholinesterase (Homo sapiens, UniProt P06276)
Description: Inhibition of butyrylcholinesterase (BChE) activity in human serum

[2] = Drug concentration that reaches 50% of antagonism index (AI); No reversion at 10 uM concentration; format: functional
[3] = Drug concentration that reaches 50% of antagonism index (AI); No reversion at 10 uM concentration.; format: functional
[4] = molecular target: T1, Acetylcholinesterase (Bos taurus, UniProt P23795)
T1 sequence (P23795 whole entry): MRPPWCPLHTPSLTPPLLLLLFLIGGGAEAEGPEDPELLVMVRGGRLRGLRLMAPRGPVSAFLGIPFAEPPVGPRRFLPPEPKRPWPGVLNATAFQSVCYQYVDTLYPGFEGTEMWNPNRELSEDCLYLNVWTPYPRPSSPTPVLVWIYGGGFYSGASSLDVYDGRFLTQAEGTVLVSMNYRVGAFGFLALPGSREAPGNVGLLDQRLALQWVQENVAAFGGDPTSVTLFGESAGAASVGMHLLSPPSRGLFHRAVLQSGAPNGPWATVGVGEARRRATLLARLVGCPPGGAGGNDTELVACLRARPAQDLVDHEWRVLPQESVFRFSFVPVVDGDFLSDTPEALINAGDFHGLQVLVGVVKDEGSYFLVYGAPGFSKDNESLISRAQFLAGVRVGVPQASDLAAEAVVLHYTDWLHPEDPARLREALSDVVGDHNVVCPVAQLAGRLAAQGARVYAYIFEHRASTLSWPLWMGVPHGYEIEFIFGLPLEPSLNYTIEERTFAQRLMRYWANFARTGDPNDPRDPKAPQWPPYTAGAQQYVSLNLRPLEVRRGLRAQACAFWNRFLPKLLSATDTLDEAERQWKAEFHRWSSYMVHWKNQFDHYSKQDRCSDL
Description: Inhibition of acetylcholinesterase (AChE)activity in bovine erythrocytes

Chain of Cholinesterase (P06276 whole entry): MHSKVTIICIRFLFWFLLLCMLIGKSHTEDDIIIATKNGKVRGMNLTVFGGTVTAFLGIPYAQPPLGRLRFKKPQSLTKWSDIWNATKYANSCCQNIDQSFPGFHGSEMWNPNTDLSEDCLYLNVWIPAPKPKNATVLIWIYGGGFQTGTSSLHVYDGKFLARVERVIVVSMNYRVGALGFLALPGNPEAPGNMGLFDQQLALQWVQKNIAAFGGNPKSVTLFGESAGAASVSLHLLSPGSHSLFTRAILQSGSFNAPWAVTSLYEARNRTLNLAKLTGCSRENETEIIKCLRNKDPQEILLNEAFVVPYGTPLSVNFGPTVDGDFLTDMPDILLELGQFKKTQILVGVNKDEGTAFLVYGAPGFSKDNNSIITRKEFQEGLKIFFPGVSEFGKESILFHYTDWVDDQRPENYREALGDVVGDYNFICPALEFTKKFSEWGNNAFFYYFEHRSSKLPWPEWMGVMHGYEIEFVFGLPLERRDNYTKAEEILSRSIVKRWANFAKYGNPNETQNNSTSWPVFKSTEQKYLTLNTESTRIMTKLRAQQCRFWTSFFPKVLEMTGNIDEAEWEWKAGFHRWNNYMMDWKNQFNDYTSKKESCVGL

Compound: CCC1=CC2Cc3nc4cc(C)ccc4c(N)c3C(C1)C2 (centres undefined) [listing 1 of 2 here]
- IC50 [1]: 115 nM and 347 nM

Compound: CCC1=CC2Cc3nc4cc(C)ccc4c(N)c3C(C1)C2 (centres undefined) [listing 2 of 2 here]
- AI50 [2]: No reversion

Compound: Nc1c2c(nc3ccccc13)CC1C=C(c3ccccc3)CC2C1 (racemic)
- AI50 [3]: No reversion
- IC50 [4]: 126 nM

Compound: CC1=CC2Cc3nc4cccc(F)c4c(N)c3C(C1)C2 (racemic)
- IC50 [4]: 31.4 nM
- IC50 [1]: 543 nM

Compound: CC1=CC2Cc3nc4cc(C)ccc4c(N)c3C(C1)C2 (racemic)
- IC50 [1]: 449 nM

Compound: CCC1=CC2Cc3nc4cccc(C)c4c(N)c3C(C1)C2 (racemic)
- IC50 [4]: 29.8 nM
- IC50 [1]: 512 nM

Compound: CC1=CC2Cc3nc4ccccc4c(N)c3C(C1)C2 (racemic)
- IC50 [4]: 65 nM
- IC50 [1]: 126 nM

Compound: CCC1=CC2Cc3nc4cc(C)ccc4c(N)c3C(C1)C2 (racemic)
- IC50 [4]: 12 nM
- IC50 [1]: 208 nM

Compound: CC(C)C1=CC2Cc3nc4ccccc4c(N)c3C(C1)C2 (racemic)
- IC50 [4]: 103 nM

Compound: CC(C)(C)C1=CC2Cc3nc4ccccc4c(N)c3C(C1)C2 (racemic)
- IC50 [4]: 267 nM

Compound: C=CCC1=CC2Cc3nc4ccccc4c(N)c3C(C1)C2 (racemic)
- AI50 [3]: No reversion at 10 uM concentration
- IC50 [4]: 150 nM

Compound: CCC1=CC2Cc3nc4ccccc4c(N)c3C(C1)C2 (racemic)
- IC50 [4]: 38.5 nM
- IC50 [1]: 79.3 nM

Compound: CC1=C[C@@H]2Cc3nc4cc(F)ccc4c(N)c3[C@H](C1)C2 (racemic)
- IC50 [4]: 8.5 nM
- IC50 [1]: 197 nM

Compound: CC1=CC2Cc3nc4ccccc4c(N)c3C(C1)C2 (single isomer, unassigned; (+))
- IC50 [4]: 329 nM
- IC50 [1]: 316 nM

Compound: CCC1=CC2Cc3nc4ccccc4c(N)c3C(C1)C2 (single isomer, unassigned; (+))
- IC50 [4]: 888 nM
- IC50 [1]: 109 nM

Compound: CC1=CC2Cc3nc4ccccc4c(N)c3C(C1)C2 (single isomer, unassigned; (-))
- IC50 [1]: 89 nM

Compound: CCC1=CC2Cc3nc4ccccc4c(N)c3C(C1)C2 (single isomer, unassigned; (-))
- IC50 [4]: 27.4 nM
- IC50 [1]: 63.3 nM

Compound: C/C=C1\[C@H]2C=C(C)C[C@]1(N)c1ccc(=O)[nH]c1C2 [HUPERZINE A]
- IC50 [1]: > 100000 nM
